{
  "source": "patent US10798943B2",
  "about": "“Use of 6-anilino purine derivatives to improve heat stress tolerance of rice seedlings” (SYNGENTA PARTICIPATIONS AG, priority 2016, dated 2020)",
  "test_system": "rice seedlings (hybrid rice variety ADT45) under heat stress",
  "test": "Green seeker data, Ramapuram trial",
  "type": "in vivo",
  "parameters": "key: percentage green area (NDVI), higher = better tolerance",
  "text": "Trials were setup in two locations in India to test the effect of compounds of formula I on tolerance of rice seedlings to heat stress during transplantation.\nFor each trial, hybrid rice variety ADT45 was sown in seedling boxes. A compound of formula (Ia) was applied by foliar spray in the form of an EC formulation, at various dose rates and seedling growth stages as shown in Table 1.\nTransplanting took place at the […] growth stage. Transplant shock was used as an indicator of tolerance to heat stress, and was measured via visual assessment of damage severity on a scale of 0% (no damage) to 100% (dead plant); observations such as yellowing and leaf tip burning are indicators of damage. Transplant shock was also assessed by measuring NVDI values using a Green Seeker™ crop sensor, which measures the percentage green area. A low transplant shock stress rating and high NVDI rating indicate improved tolerance to transplant shock stress.\nThe trial was carried out between 5 Aug. 2015 and 9 Sep. 2015, with transplanting on 15 Aug. 2015. The mean maximum daily temperature during the trial period was 35.3° C., and mean minimum daily temperature during the trial period was 23.7° C. The mean temperature during the entire trial period was 30.2° C.",
  "key": {"[1]": {"settings": "treatment 2: 5 g ai/ha, Pigeon-breast"}, "[2]": {"settings": "treatment 3: 10 g ai/ha, Pigeon-breast"}, "[3]": {"settings": "treatment 4: 20 g ai/ha, Pigeon-breast"}, "[4]": {"settings": "treatment 6: 10 g ai/ha, 2-leaf"}, "[5]": {"settings": "treatment 7: 20 g ai/ha, 2-leaf"}, "[6]": {"settings": "treatment 9: 10 g ai/ha, 3-leaf"}, "[7]": {"settings": "treatment 10: 20 g ai/ha, 3-leaf"}},
  "data": [
    {"compound": "COc1cccc(Nc2nc(F)nc3[nH]cnc23)c1", "note": "[Formula Ia]", "values": [
      {"measurement": "Green seeker data (15 DAT afternoon)", "setting": "[1]", "value": 28},
      {"measurement": "Green seeker data (15 DAT evening)", "setting": "[1]", "value": 31},
      {"measurement": "Green seeker data (15 DAT morning)", "setting": "[1]", "value": 22},
      {"measurement": "Green seeker data (15 DAT afternoon)", "setting": "[2]", "value": 25},
      {"measurement": "Green seeker data (15 DAT evening)", "setting": "[2]", "value": 29},
      {"measurement": "Green seeker data (15 DAT morning)", "setting": "[2]", "value": 25},
      {"measurement": "Green seeker data (15 DAT afternoon)", "setting": "[3]", "value": 28},
      {"measurement": "Green seeker data (15 DAT evening)", "setting": "[3]", "value": 25},
      {"measurement": "Green seeker data (15 DAT morning)", "setting": "[3]", "value": 21},
      {"measurement": "Green seeker data (15 DAT afternoon)", "setting": "treatment 5: 5 g ai/ha, 2-leaf", "value": 27},
      {"measurement": "Green seeker data (15 DAT evening)", "setting": "treatment 5: 5 g ai/ha, 2-leaf", "value": 34},
      {"measurement": "Green seeker data (15 DAT morning)", "setting": "treatment 5: 5 g ai/ha, 2-leaf", "value": 25},
      {"measurement": "Green seeker data (15 DAT afternoon)", "setting": "[4]", "value": 29},
      {"measurement": "Green seeker data (15 DAT evening)", "setting": "[4]", "value": 32},
      {"measurement": "Green seeker data (15 DAT morning)", "setting": "[4]", "value": 28},
      {"measurement": "Green seeker data (15 DAT afternoon)", "setting": "[5]", "value": 26},
      {"measurement": "Green seeker data (15 DAT evening)", "setting": "[5]", "value": 26},
      {"measurement": "Green seeker data (15 DAT morning)", "setting": "[5]", "value": 22},
      {"measurement": "Green seeker data (15 DAT afternoon)", "setting": "treatment 8: 5 g ai/ha, 3-leaf", "value": 26},
      {"measurement": "Green seeker data (15 DAT evening)", "setting": "treatment 8: 5 g ai/ha, 3-leaf", "value": 30},
      {"measurement": "Green seeker data (15 DAT morning)", "setting": "treatment 8: 5 g ai/ha, 3-leaf", "value": 23},
      {"measurement": "Green seeker data (15 DAT afternoon)", "setting": "[6]", "value": 26},
      {"measurement": "Green seeker data (15 DAT evening)", "setting": "[6]", "value": 31},
      {"measurement": "Green seeker data (15 DAT morning)", "setting": "[6]", "value": 23},
      {"measurement": "Green seeker data (15 DAT afternoon)", "setting": "[7]", "value": 30},
      {"measurement": "Green seeker data (15 DAT evening)", "setting": "[7]", "value": 29},
      {"measurement": "Green seeker data (15 DAT morning)", "setting": "[7]", "value": 25}
    ]}
  ]
}
